Measurements as given in patent publication US20210070747A1, “2(1H)-QUINOLINONE DERIVATIVE” (priority 2017, published 2021).
pIC50: −log10 of the molar value. Like-named read-outs stand apart in the source and are kept apart here.

What was measured:
E. coli DNA gyrase = target: T1, E. coli DNA gyrase (Escherichia coli, UniProt P0AES6); assay: Test for evaluating the activity of inhibiting E. coli DNA gyrase enzyme (Method 2, supercoiling, recombinant gyrA/gyrB complex); format: biochemical
T1 construct: made in house; host or cells: E. coli BL21 (DE3)
Experimental: The enzymatic activity of E. coli DNA gyrase was measured by a method comprising reacting DNA gyrase and its substrate, relaxed pBR322 (Inspiralis), in the presence of ATP and detecting the post-reaction supercoiled pBR322/relaxed pBR322 ratio with H19.
Specifically, to 1 ng/μL of relaxed pBR322, E. coli DNA gyrase enzyme (the gyrA or gyrB gene was incorporated into the pET15b plasmid and after expressing them in E. coli BL21 (DE3), purification was performed using a Ni-NTA column to form a complex at room temperature) was added at a final concentration of 0.135 nmol/mL and the mixture was incubated for 60 minutes at room temperature. This reaction was carried out in 20 mmol/L tris-HCl buffered solution (pH 8.0) comprising 0.5 mmol/L ATP, 0.005% bridge 35, 35 mmol/L ammonium acetate, 8 mmol/L magnesium chloride, 4.6% glycerol, and 1 mmol/L dithiothreitol. To the reaction mixture, H19 was added to bring the reaction to an end; thereafter, the supercoiled pBR322/relaxed pBR322 ratio was detected at excitation wavelength/emission wavelength=485 nm/535 nm. An inhibition curve was obtained by allowing the analyte compound to be present at varying concentrations during the reaction described above.

E. Coli ATCC 25922 = assay: Test for evaluating antibacterial activity (E. coli), broth microdilution MIC; format: cell-based; conditions: Escherichia coli, ATCC25922; 35° C., 18 hours, cation-adjusted Mueller-Hinton medium
Experimental: Minimum inhibitory concentration (MIC) was measured using the broth microdilution method described below in accordance with a modification of the standard method specified by CLSI (Clinical & Laboratory Standards Institute).
Bacterial cells under test were cultured overnight on a heart infusion agar medium, scraped off and suspended at a concentration equivalent to McFarland 0.5 turbidity; the suspension thus obtained was diluted 10 folds to give a liquid inoculum. The inoculum (0.005 mL) was inoculated on a cation-adjusted Mueller-Hinton medium containing the analyte compound and cultured at 35° C. for 18 hours. A minimum drug concentration at which no bacterial growth was macroscopically visible was designated MIC.

[1] = Method 2, read-out: E. Coli Gyrase supercoiling IC50

Structure (SMILES)	pIC50 (E. coli DNA gyrase; [1])	MIC (E. Coli ATCC 25922)	pIC50 (E. coli DNA gyrase)
CNc1cc(F)cc2cc(C(=O)Nc3ccc(C(=O)O)cc3/C=C/CCO)c(=O)[nH]c12 [Example 119, 4-[[6-Fluoro-8-(methylamino)-2-oxo-1,2-dihydroquinoline-3-carbonyl]amino]-3-[(1E)-4-hydroxybut-1-en-1-yl]benzoic Acid]	7.69	> 64 µg/mL	–
CNc1cccc2cc(C(=O)Nc3cnc(NCCN4CCN(C)CC4)nc3)c(=O)[nH]c12 [Example 34, 8-(methylamino)-N-(2-{[2-(4-methylpiperazine-1-yl)ethyl]amino}pyrimidine-5-yl)-2-oxo-1,2-dihydroquinoline-3-carboxamide]	7.63	> 64 µg/mL	–
CNc1cc(F)cc2c(NCCN3CCOCC3)c(C(=O)Nc3ccc(C(=O)O)cc3)c(=O)[nH]c12.O=CO [Example 143, 4-{[6-fluoro-8-(methylamino)-4-{[2-(morpholine-4-yl)ethyl]amino}-2-oxo-1,2-dihydroquinoline-3-carbonyl]amino}benzoic acid-formate]	–	> 64 µg/mL	7.84
CNc1cc(F)cc2cc(C(=O)Nc3ccc(C(=O)O)cc3CCN(C)C3CCCCC3)c(=O)[nH]c12 [Example 111, 3-{2-[cyclohexyl (methyl)amino]ethyl}-4-{[6-fluoro-8-(methylamino)-2-oxo-1,2-dihydroquinoline-3-carbonyl]amino} benzoic acid]	8.53	> 32 µg/mL	–
CNc1cc(F)cc2c(NC3CC34CCNCC4)c(C(=O)Nc3ccc(C(=O)O)cc3)c(=O)[nH]c12.O=CO (stereo not drawn) [Example 139, 4-({4-[(6-azaspiro[2.5]octane-1-yl)amino]-6-fluoro-8-(methylamino)-2-oxo-1,2-dihydroquinoline-3-carbonyl}amino)benzoic acid-formate]	–	> 64 µg/mL	8.16
CNc1cccc2cc(C(=O)Nc3cnc(NCCCN(CCO)CCO)nc3)c(=O)[nH]c12 [Example 41, N-[2-({3-[bis(2-hydroxyethyl)amino]propyl}amino)pyrimidine-5-yl]-8-(methylamino)-2-oxo-1,2-dihydroquinoline-3-carboxamide]	6.83	> 64 µg/mL	–
CNc1cc(F)cc2cc(C(=O)Nc3ccc(C(=O)O)cc3CCN(C)C)c(=O)[nH]c12 [Example 115, 3-[2-(dimethylamino)ethyl]-4-{[6-fluoro-8-(methylamino)-2-oxo-1,2-dihydroquinoline-3-carbonyl]amino} benzoic acid]	8.34	> 4 µg/mL	–
CNc1cc(F)cc2c(NCC3CCNCC3)c(C(=O)Nc3ccc(C(=O)O)cc3)c(=O)[nH]c12.O=CO [Example 137, 4-{[6-fluoro-8-(methylamino)-2-oxo-4-{[(piperidine-4-yl)methyl]amino}-1,2-dihydroquinoline-3-carbonyl]amino}benzoic acid-formate]	–	> 32 µg/mL	8.88
CNc1cc(F)cc2cc(C(=O)Nc3ccc(C(=O)NCCN4CCOCC4)cc3C)c(=O)[nH]c12 [Example 86, 6-fluoro-8-(methylamino)-N-(2-methyl-4-{[2-(morpholine-4-yl)ethyl]carbamoyl}phenyl)-2-oxo-1,2-dihydroquinoline-3-carboxamide]	7.46	> 4 µg/mL	–
CNc1cc(F)cc2c(N[C@H]3C[C@@H](N)C3)c(C(=O)Nc3ccc(C(=O)O)cc3)c(=O)[nH]c12 [Example 142, 4-({4-[(cis-3-aminocyclobutyl)amino]-6-fluoro-8-(methylamino)-2-oxo-1,2-dihydroquinoline-carbonyl}amino) 3-benzoic acid-formate]	8.58	> 32 µg/mL	–
CNc1cc(F)cc2cc(C(=O)Nc3ccc(C(=O)O)cc3CN3CCCC(N)C3)c(=O)[nH]c12.Cl (stereo not drawn) [Example 109, 3-[(3-Aminopiperidin-1-yl)methyl]-4-[[6-fluoro-8-(methylamino)-2-oxo-1,2-dihydroquinoline-3-carbonyl]amino]benzoic acid-hydrochloride]	–	> 32 µg/mL	7.82
CNCCCc1c(C(=O)Nc2ccc(C(=O)O)cc2)c(=O)[nH]c2c(NC)cc(F)cc12.O=C(O)C(F)(F)F [Example 134, 4-([6-Fluoro-8-(methylamino)-4-[3-(methylamino)propyl]-2-oxo-1,2-dihydroquinoline-3-carbonyl]amino)benzoic Acid-Trifluoroacetate]	–	> 32 µg/mL	6.88
CNc1cc(F)cc2cc(C(=O)Nc3ccc(C(=O)NO)cc3)c(=O)[nH]c12 [Example 92, 6-Fluoro-N-[4-(hydroxycarbamoyl)phenyl]-8-(methylamino)-2-oxo-1,2-dihydroquinoline-3-carboxamide]	8.59	> 4 µg/mL	–
CNc1cccc2cc(C(=O)Nc3cnc(NCc4csc(N)n4)nc3)c(=O)[nH]c12 [Example 35, N-(2-[[(2-Amino-1,3-thiazol-4-yl)methyl]amino]pyrimidin-5-yl)-8-(methylamino)-2-oxo-1,2-dihydroquinoline-3-carboxamide]	8.83	> 4 µg/mL	–
CNc1cc(F)cc2cc(C(=O)Nc3ccnn3C)c(=O)[nH]c12 [Example 89, 6-fluoro-8-(methylamino)-N-(1-methyl-1H-pyrazole-5-yl)-2-oxo-1,2-dihydroquinoline-3-carboxamide]	7.52	> 8 µg/mL	–
CNc1cccc2cc(C(=O)NCCc3noc(=O)[nH]3)c(=O)[nH]c12 [Example 36, 8-(methylamino)-2-oxo-N-[2-(5-oxo-4,5-dihydro-1,2,4-oxadiazole-3-y1)ethyl]-1,2-dihydroquinoline-3-carboxamide]	7.14	> 32 µg/mL	–
CNc1cc(F)cc2c(NCC3(N)CCC3)c(C(=O)Nc3ccc(C(=O)O)cc3)c(=O)[nH]c12.O=CO [Example 140, 4-{[4-{[(1-aminocyclobutyl)methyl]amino}-6-fluoro-8-(methylamino)-2-oxo-1,2-dihydroquinoline-3-carbonyl]amino}benzoic acid-formate]	–	> 32 µg/mL	8.67
CNc1cccc2cc(C(=O)Nc3cnc(N4CCC(N)(C(=O)O)CC4)nc3)c(=O)[nH]c12.Cl [Example 39, 4-Amino-1-(5-[[8-(methylamino)-2-oxo-1,2-dihydroquinoline-3-carbonyl]amino]pyrimidin-2-yl)piperidine-4-carboxylic acid-hydrochloride]	–	> 8 µg/mL	7.31
CNc1cc(F)cc2cc(C(=O)Nc3ccc(C(=O)O)cc3CCCCN(C)C)c(=O)[nH]c12 [Example 126, 3-[4-(dimethylamino)butyl]-4-{[6-fluoro-8-(methylamino)-2-oxo-1,2-dihydroquinoline-3-carbonyl]amino}benzoic acid]	7.66	> 8 µg/mL	–
CNc1cc(F)cc2cc(C(=O)Nc3ccc(C(=O)O)cc3CN(CCCN(C)C)CCCN(C)C)c(=O)[nH]c12 [Example 105, 3-({bis[3-(dimethylamino)propyl]amino}methyl)-4-{[6-fluoro-8-(methylamino)-2-oxo-1,2-dihydroquinoline-3-carbonyl]amino} benzoic acid]	7.53	> 32 µg/mL	–
CNc1cc(F)cc2cc(C(=O)Nc3ccc(C(=O)O)cc3CNC3CCCCC3)c(=O)[nH]c12.O=C(O)C(F)(F)F [Example 113, 3-[(cyclohexylamino)methyl]-4-{[6-fluoro-8-(methylamino)-2-oxo-1,2-dihydroquinoline-3-carbonyl]amino}benzoic acid-trifluoroacetate]	–	32 µg/mL	9.59
